Source: patent publication US11970498B2, “CDK2 inhibitors” (BLUEPRINT MEDICINES CORPORATION, priority 2021, dated 2024)

Assays:
[1] = target: CDK2/Cyclin E (Homo sapiens, UniProt P24941); assay: CDK2/Cyclin E biochemical phosphorylation assay (Caliper mobility shift); details: apparent IC50; 1.0 mM ATP or ATP Km; 1.25 nM enzyme; 25° C.; read-out: CDK2/cyclin E1 IC50
Summary of the method: (§1)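 7.5 µM 5-FAM-QSPKKG-CONH2 peptide phosphorylated by CDK2/Cyclin E (1.25 nM) or GST-CDK1/Cyclin B1 (1.5 nM) at 1.0 mM ATP or ATP Km, in HEPES pH 7.5, MgCl2, Brij-35, DTT, 1% DMSO, 25 °C to 10–20% conversion. EDTA stop; Caliper mobility-shift readout; apparent IC50 from percent activity vs log concentration.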

[2] = target: T1, CDK1/Cyclin B1, GST-tag (Homo sapiens, UniProt P06493); assay: CDK1/Cyclin B1 biochemical phosphorylation assay (Caliper mobility shift); details: apparent IC50; 1.0 mM ATP or ATP Km; 1.5 nM enzyme; 25° C.
T1 construct: GST
Summary of the method: as §1

T1 sequence (P06493 whole entry): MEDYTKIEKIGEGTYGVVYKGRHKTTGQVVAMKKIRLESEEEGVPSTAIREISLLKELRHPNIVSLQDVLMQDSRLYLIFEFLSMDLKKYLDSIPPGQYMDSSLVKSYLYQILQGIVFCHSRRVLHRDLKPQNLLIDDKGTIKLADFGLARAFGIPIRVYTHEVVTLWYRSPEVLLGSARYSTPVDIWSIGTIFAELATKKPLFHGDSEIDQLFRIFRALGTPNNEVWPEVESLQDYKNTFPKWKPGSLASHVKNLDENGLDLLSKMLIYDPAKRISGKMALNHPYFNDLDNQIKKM
T1 sequence (P14635 whole entry partner): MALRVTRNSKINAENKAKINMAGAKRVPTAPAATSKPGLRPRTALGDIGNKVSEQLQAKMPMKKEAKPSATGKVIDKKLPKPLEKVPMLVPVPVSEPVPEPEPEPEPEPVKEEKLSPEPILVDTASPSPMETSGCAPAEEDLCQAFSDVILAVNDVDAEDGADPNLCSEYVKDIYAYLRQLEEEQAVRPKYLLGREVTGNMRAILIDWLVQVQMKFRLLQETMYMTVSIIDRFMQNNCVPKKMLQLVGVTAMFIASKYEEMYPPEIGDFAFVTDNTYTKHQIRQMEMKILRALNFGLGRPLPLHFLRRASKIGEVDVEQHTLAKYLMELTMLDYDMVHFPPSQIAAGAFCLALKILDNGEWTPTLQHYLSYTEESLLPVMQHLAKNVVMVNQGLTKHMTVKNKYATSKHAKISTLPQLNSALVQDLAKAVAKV

Row | Structure (SMILES) | IC50 [1] | IC50 [2]
1 | C[C@@H]([C@H]1CCOC1)n1ncc2ncc(Nc3cc(OC(F)F)[nH]n3)nc21 (single isomer, unassigned) [Example 12] | 30 to 100 nM | ≥ 500 nM
2 | C[C@@H](c1cccnc1Cl)n1ncc2ncc(Nc3cc(OC(F)F)[nH]n3)nc21 [Example 60, (S)-1-(1-(2-chloropyridin-3-yl)ethyl)-N-(5-(difluoromethoxy)-1H-pyrazol-3-yl)-1H-pyrazolo[3,4-b]pyrazin-6-amine] | ≤ 10 nM | ≥ 500 nM
3 | C[C@H](C1CC1)n1ncc2ncc(Nc3cc(OC(F)F)[nH]n3)nc21 [Example 55, (R)-1-(1-cyclopropylethyl)-N-(5-(difluoromethoxy)-1H-pyrazol-3-yl)-1H-pyrazolo[3,4-b]pyrazin-6-amine] | ≤ 10 nM | ≥ 500 nM
4 | CC[C@@H]([C@@H](C)O)n1ncc2ncc(Nc3cc(OC(F)F)[nH]n3)nc21 (single isomer, unassigned) [Example 201, (2R,3S)-3-(6-((5-(difluoromethoxy)-1H-pyrazol-3-yl)amino)-1H-pyrazolo[3,4-b]pyrazin-1-yl)pentan-2-ol or (2R,3R)-3-(6-((5-(difluoromethoxy)-1H-pyrazol-3-yl)amino)-1H-pyrazolo[3,4-b]pyrazin-1-yl)pentan-2-ol] | > 100 nM | ≥ 500 nM
5 | FC(F)Oc1cc(Nc2cnc3cnn(CC45CCC(CC4)OC5)c3n2)n[nH]1 [Example 118, 1-((2-oxabicyclo[2.2.2]octan-4-yl)methyl)-N-(5-(difluoromethoxy)-1H-pyrazol-3-yl)-1H-pyrazolo[3,4-b]pyrazin-6-amine] | ≤ 10 nM | 100 to 500 nM
6 | COc1cc(Nc2cnc3cnn(CC4CC4)c3n2)n[nH]1 [Example 69, 1-(cyclopropylmethyl)-N-(5-methoxy-1H-pyrazol-3-yl)-1H-pyrazolo[3,4-b]pyrazin-6-amine] | 30 to 100 nM | ≥ 500 nM
7 | FC(F)Oc1cc(Nc2cnc3cnn(C[C@H]4CCCNC4)c3n2)n[nH]1 [Example 200, (S)—N-(5-(difluoromethoxy)-1H-pyrazol-3-yl)-1-(piperidin-3-ylmethyl)-1H-pyrazolo[3,4-b]pyrazin-6-amine] | 20 to 30 nM | ≥ 500 nM
8 | OC[C@@H](c1ccccc1)n1ncc2ncc(Nc3cc(OC(F)F)[nH]n3)nc21 [Example 203, (R)-2-(6-((5-(difluoromethoxy)-1H-pyrazol-3-yl)amino)-1H-pyrazolo[3,4-b]pyrazin-1-yl)-2-phenylethan-1-ol] | 30 to 100 nM | ≥ 500 nM
9 | O[C@H]1CC[C@@H](n2ncc3ncc(Nc4cc(OC(F)F)[nH]n4)nc32)CC1 [Example 57, (1s,4s)-4-(6-((5-(difluoromethoxy)-1Hpyrazol-3-yl)amino)-1Hpyrazolo[3,4-b]pyrazin-1-yl)cyclohexan-1-ol] | 30 to 100 nM | ≥ 500 nM
10 | FC(F)Oc1cc(Nc2cnc3cnn(C[C@@]4(F)CCOC4)c3n2)n[nH]1 (single isomer, unassigned) [Example 167, (S)-N-(5-(difluoromethoxy)-1H-pyrazol-3-yl)-1-((3-fluorotetrahydrofuran-3-yl)methyl)-1H-pyrazolo[3,4-b]pyrazin-6-amine or (R)-N-(5-(difluoromethoxy)-1H-pyrazol-3-yl)-1-((3-fluorotetrahydrofuran-3-yl)methyl)-1H-pyrazolo[3,4-b]pyrazin-6-amine] | 20 to 30 nM | ≥ 500 nM
11 | C[C@@H](O)c1nn(CC2CCOCC2)c2nc(Nc3cc(OC(F)F)[nH]n3)cnc12 (single isomer, unassigned) [Example 175, (R)-1-(6-((5-(difluoromethoxy)-1H-pyrazol-3-yl)amino)-1-((tetrahydro-2H-pyran-4-yl)methyl)-1H-pyrazolo[3,4-b]pyrazin-3-yl)ethan-1-ol or (S)-1-(6-((5-(difluoromethoxy)-1H-pyrazol-3-yl)amino)-1-((tetrahydro-2H-pyran-4-yl)methyl)-1H-pyrazolo[3,4-b]pyrazin-3-yl)ethan-1-ol] | ≤ 10 nM | 100 to 500 nM
